From patent US4983328A, “N-(4-(3-aminopropyl)aminobutyl)-2-(ω-gua nidino-fatty-acid-amido(-2-substituted-ethanamide, salt thereof, and process for preparation thereof” (Bristol-Myers Company, priority 1981, dated 1991)
Values after ≈ are worked out from the molar mass of the structure shown.

Columns and labels:
[1] = acute toxicity in mice (single intraperitoneal administration); settings: mouse, in vivo, ip; mice, single i.p.; read-out: LD50 (median lethal dose on single administration)
Method: (§1) In Table 8 median lethal doses (LD50) of typical compounds of this invention are shown, measured in mice upon single intraperitoneal administration, as well as maximum tolerated doses in terms of total dose when a fixed amount per unit body weight was administered intraperitoneally to mice once a day for 6 consecutive days.
*Median lethal dose on single administration.

[2] = test system: mouse leukemia L-1210 cells; assay: growth inhibitory activity to cancer cells in vitro (L-1210, 48 hours); type: cell-based; settings: for inhibition at 5 µg/mL: L1210, 5 mcg/ml; for inhibition at 5 µg/mL / inhibition at 10 µg/mL / inhibition at 20 µg/mL / inhibition at 40 µg/mL / inhibition at 80 µg/mL / inhibition at 1.25 µg/mL / inhibition at 2.5 µg/mL: read-out: Growth inhibition (%), (1-T/C) × 100; for inhibition at 10 µg/mL: L1210, 10 mcg/ml; for inhibition at 20 µg/mL: L1210, 20 mcg/ml; for inhibition at 40 µg/mL: L1210, 40 mcg/ml; for inhibition at 80 µg/mL: L1210, 80 mcg/ml; for IC50: L1210, L-1210 cells, read-out: 50% inhibitory concentration; for inhibition at 1.25 µg/mL: L1210, 1.25 mcg/ml; for inhibition at 2.5 µg/mL: L1210, 2.5 mcg/ml
Method: DBA/2 mice were implanted with 10^5 mouse leukemia L-1210 cells. The ascites collected asceptically from the mice after 4 days of feeding was washed three times with physiological saline to obtain L-1210 cells, which was then suspended in RPMI 1640 culture medium [G. E. Moore, Journal of the American Medical Association, Vol. 199, 519 (1967); H. J. Morton, In Vitro, Vol. 6, 89 (1970)] to which 10% fetal calf serum and 5 μM 2-mercaptoethanol had been added, and the resulting suspension was diluted to 5×10^4 L-1210 cells per 0.9 ml. A microplate carrying 0.9 ml of the cell suspension and 0.1 ml of the culture medium containing the sample being tested was kept in a carbon dioxide incubator at 37° C. After 48 hours of cultivation, the number of cells was measured by means of a Coulter Counter (Coulter Electronics, Inc., U.S.A.) to obtain the growth inhibition (%)=(1--T/C )×100=[1-(number of grown cells in medium containing sample/(number of grown cells in control medium)]×100. The 50% growth inhibitory concentration was calculated from the values of growth inhibition at varied sample concentrations. The results of tests on typical compounds of this invention for the growth inhibition of L-1210 cells were as shown in Table 6.

mouse leukemia L-1210 = assay: therapeutic effect on implanted cancer in mice (L-1210, survival over 30 days); type: in vivo, mouse (BDF1); settings: L1210, ip, 720 h, 6 days
Text: BDF1 strain male mice (5 weeks old) were each inoculated intraperitoneally with 10^5 mouse leukemia L-1210 cells and treated once a day by intraperitoneal injection with a test compound dissolved in physiological saline for 6 consecutive days beginning from the day of inoculation. The mice were then observed for 30 days to determine the rate of prolongation of survival period=100×T/C=100×(average survival days of treated group)/(average survival days of control group).

[3] = cumulative toxicity in mice (maximum tolerated dose, once a day for 6 consecutive days); settings: mouse, in vivo, ip, i.p. once a day for 6 consecutive days, total dose, read-out: Maximum Tolerated Dose (total dose not causing death)
Method: as §1
**Maximum value of the total dose not causing death when a fixed amount
per unit body weight is administered to mice once a day for 6 consecutive

| SMILES | LD50 [1] [mg/kg] | inhibition at 5 µg/mL [2] [%] | inhibition at 10 µg/mL [2] [%] | inhibition at 20 µg/mL [2] [%] | inhibition at 40 µg/mL [2] [%] | inhibition at 80 µg/mL [2] [%] | IC50 [2] [µg/mL] | MTD [3] [mg/kg] | inhibition at 1.25 µg/mL [2] [%] | inhibition at 2.5 µg/mL [2] [%] | other results |
| --- | --- | --- | --- | --- | --- | --- | --- | --- | --- | --- | --- |
| COC(NC(=O)CCCCCCCCNC(=N)N)C(=O)NCCCCNCCCN (stereo not shown) [Compound 11, N-[4-(3-aminopropyl)aminobutyl]-2-(9-guanidinononanamido)-2-methoxyethanamide] | 12.5 to 25 | 35 | 52.2 | 59.4 | 71.8 | 77.9 | 10 (≈ 23.3 µM) | > 75 |  |  | responders at 0.2 mg/kg (mouse leukemia L-1210; 0.20 mg/kg/day i.p., read-out: Number of mice survived for 30 days (converted)): 0%; response vs control in vivo at 0.2 mg/kg (mouse leukemia L-1210; 0.20 mg/kg/day i.p., read-out: Prolongation of survival period (%), T/C × 100): 107%; responders at 0.39 mg/kg (mouse leukemia L-1210; 0.39 mg/kg/day i.p., read-out: Number of mice survived for 30 days (converted)): 0%; response vs control in vivo at 0.39 mg/kg (mouse leukemia L-1210; 0.39 mg/kg/day i.p., read-out: Prolongation of survival period (%), T/C × 100): 143%; responders at 0.78 mg/kg (mouse leukemia L-1210; 0.78 mg/kg/day i.p., read-out: Number of mice survived for 30 days (converted)): 0%; response vs control in vivo at 0.78 mg/kg (mouse leukemia L-1210; 0.78 mg/kg/day i.p., read-out: Prolongation of survival period (%), T/C × 100): 200%; responders at 1.56 mg/kg (mouse leukemia L-1210; 1.56 mg/kg/day i.p., read-out: Number of mice survived for 30 days (converted)): 0%; response vs control in vivo at 1.56 mg/kg (mouse leukemia L-1210; 1.56 mg/kg/day i.p., read-out: Prolongation of survival period (%), T/C × 100): 200%; responders at 3.13 mg/kg (mouse leukemia L-1210; 3.13 mg/kg/day i.p., read-out: Number of mice survived for 30 days (converted)): 50%; response vs control in vivo at 3.13 mg/kg (mouse leukemia L-1210; 3.13 mg/kg/day i.p., read-out: Prolongation of survival period (%), T/C × 100): > 357%; responders at 6.25 mg/kg (mouse leukemia L-1210; 6.25 mg/kg/day i.p., read-out: Number of mice survived for 30 days (converted)): 75%; response vs control in vivo at 6.25 mg/kg (mouse leukemia L-1210; 6.25 mg/kg/day i.p., read-out: Prolongation of survival period (%), T/C × 100): > 393%; responders at 12.5 mg/kg (mouse leukemia L-1210; 12.5 mg/kg/day i.p., read-out: Number of mice survived for 30 days (converted)): 50%; response vs control in vivo at 12.5 mg/kg (mouse leukemia L-1210; 12.5 mg/kg/day i.p., read-out: Prolongation of survival period (%), T/C × 100): > 357%; responders at 25 mg/kg (mouse leukemia L-1210; 25 mg/kg/day i.p., read-out: Number of mice survived for 30 days (converted)): 0%; response vs control in vivo at 25 mg/kg (mouse leukemia L-1210; 25 mg/kg/day i.p., read-out: Prolongation of survival period (%), T/C × 100): 0%; responders at 50 mg/kg (mouse leukemia L-1210; 50 mg/kg/day i.p., read-out: Number of mice survived for 30 days (converted)): 0%; response vs control in vivo at 50 mg/kg (mouse leukemia L-1210; 50 mg/kg/day i.p., read-out: Prolongation of survival period (%), T/C × 100): 0% |
| N=C(N)NCCCCCC(O)CC(=O)NC(O)C(=O)NCCCCNCCCN (stereo not shown) [Compound 20, N-[4-(3-aminopropyl)aminobutyl]-2-(8-guanidino-3-hydroxyoctanamido)-2-hydroxyethanamide] | > 50 | 28.9 | 30.7 | 45.7 |  |  | 27 (≈ 64.7 µM) | > 300 | 17.2 | 20.1 |  |
| N=C(N)NCCCCCC(=O)NC(O)C(=O)NCCCCNCCCN (stereo not shown) [Compound 3, N-[4-(3-aminopropyl)aminobutyl]-2-(6-guanidinohexanamido)-2-hydroxyethanamide] | > 50 | 64.2 | 81.6 | 86.7 |  |  | 3.7 (≈ 9.91 µM) | > 300 | 20.6 | 36.7 |  |
| N=C(N)NCCCCC(=O)NC(O)C(=O)NCCCCNCCCN (stereo not shown) [Compound 2, N-[4-(3-aminopropyl)aminobutyl]-2-(5-guanidinopentanamido)-2-hydroxyethanamide] | > 50 | 46.9 | 69.5 | 77.6 | 79.6 | 79.6 | 5 (≈ 13.9 µM) | > 300 | 9.6 | 30.5 |  |
